The values that follow come from patent US20140031324A1, “COMPOUND COMPOSITION FOR INHALATION USED FOR TREATING ASTHMA” (Intech Biopharm Ltd., priority 2010, published 2014).

The conditions of assay [1]: long acting beta-2 agonists (LABA); cited from earlier work.
The test system of a further assay is OVA-sensitized mice. In words: Albumin (OVA)-induced asthma model in mice; methacholine-induced tracheal contraction (airway hyperresponsiveness, FlexiVent). Format: in vivo, Balb/c mice. Particulars: single super high dose, alone or in combination, intratracheal, FIGS. 2 to 4.

SMILES strings stand for the structures.

Experimental for OVA-sensitized mice: An albumin-inducing asthma model in mice was used to conduct related tests. In accordance with the control group and the experimental group, the mice were divided into the different groups to conduct the experiment. The control group includes a normal control group which none sensitized mice are given saline (no drug), and an asthma control group which sensitized mice are treated with vehicle. The experimental group is divided into sub-group according to different methods of administering drugs. Respectively, such as the group which is using different dosage and different frequency of the beta2-agonist alone and the group which is using different dosage and different frequency of the pharmaceutical combination of the beta2-agonist with the corticosteroid.
The mice which are for sensitization all experience three times of the peritoneal albumin (OVA) injection with ten-day intervals in advance, on the 24th day, collect the blood sample and exam the IgE to confirm allergy. Then, on the 26th day, albumin was administered in the nasal cavities of the mice. And, from the 30th day, the intratracheal administration is divided into groups of once time dosing and seven-day dosing which is further divided into once or twice daily groups. After the last dose, perform a tracheotomy and intubation and use instruments collect the data of that Methacholine (MCh), induces tracheal contraction. […]

For `OCc1cc(C(O)CNCCCCCCOCCCCc2ccccc2)ccc1O` (stereo not drawn) [Salmeterol, Salmeterol Xinafoate], in assay [1], the duration of action result is on record as “up to twelve”. Besides, the “acute drug tolerance (ability of trachea relaxing)” value in the assay on OVA-sensitized mice is “acute drug tolerance phenomenon of reducing the ability of trachea relaxing”. As to `CCC(NC(C)C)C(O)c1ccc(O)c2[nH]c(=O)ccc12` (stereo not drawn) [Procaterol], the “acute drug tolerance (ability of trachea relaxing)” value in the assay on OVA-sensitized mice is “acute drug tolerance phenomenon of reducing the ability of trachea relaxing”.
